Measured values from patent publication US11851419B2, “GLP-1R modulating compounds” (Gilead Sciences, Inc., priority 2020, dated 2023).

What was measured:
GLP-1R [1] = biological target: T1, GLP-1R (Homo sapiens, UniProt P43220); assay: GLP-1R Activation - cAMP Assay 1 (cAMP increase in CHO cells stably expressing GLP-1R); type: cell-based; conditions: 10 point dose response, 30 minutes incubation at 37° C., cAMP Gs Dynamic Kit
Method: GLP-1R Activation—cAMP Assay 1
GLP-1R activation by a compound of the present disclosure was quantified by measuring cAMP increase in CHO cells stably expressing GLP-1R (MultiSpan product #C1267-1a). The cells were harvested and plated in growth medium (DMEM/F-12 (Corning product #10-090-CV) supplemented with 10% FBS (HyClone product #SH30071-03), penicillin/streptomycin (Corning product #30-002CI) and 10 µg/ml puromycin (Gibco product #A11138-03)) at 1,000 cells/well in a 384-well plate (Greiner product #781080). The cells were then incubated overnight at 37° C., 5% CO2. The next day, the medium was removed and the cells were washed with DPBS (Corning product #21-031-CM) before adding the assay medium (HBSS, Corning product #21-023-CV) with 20 mM Hepes (Gibco product #15630-080) and 0. 1% BSA (Rockland Immunochemicals product #BSA-1000)). Following the medium change, the cells were incubated for 1 hour at 37° C., 5% CO2. The tested GLP-1 compound was added to the cells in a 10 point dose response followed by a 30 minutes incubation at 37° C., 5% CO2. cAMP concentration increase was then detected using Cisbio's cAMP Gs Dynamic Kit (product #62AM4PEC) according to the manufacturer's protocol. The response was plotted against the log of the agonist concentration and fitted to a sigmoidal equation to determine the EC50.

GLP-1R [2] = biological target: T1, GLP-1R; assay: GLP-1R Activation - cAMP Assay 2 (cAMP increase in CHO cells stably expressing GLP-1R, pre-spotted agonists); type: cell-based; conditions: assay buffer or 100% Human Plasma (not given), 30 minutes at 37° C.
Method: GLP-1R Activation—cAMP Assay 2
GLP-1R activation by small molecule agonists is quantified by measuring cAMP increase in CHO cells stably expressing GLP-1R (MultiSpan product #C1267-1a). 50 nL of agonists are pre-spotted in a 10 point dose response onto 384-well plate (Corning product #CL3826) using the Labcyte Echo System. The cells are harvested and plated in assay buffer (HBSS (Corning product #21-023-CV) with 20 mM Hepes (Gibco product #15630-080) and 0.1% BSA (Rockland Immunochemicals product #BSA-1000)) or 100% Human Plasma (Innovative Research product #50-643-396) at 1,000 cells/well, 10 µL/well, onto the pre-spotted plates. The cells are then incubated for 30 minutes at 37° C., 5% CO2. cAMP concentration increase is then detected using Cisbio's cAMP Gs Dynamic Kit (product #62AM4PEC) according to the manufacturer's protocol. The response is plotted against the log of the agonist concentration and fitted to a sigmoidal equation to determine the EC50.

T1 sequence (P43220 24-463): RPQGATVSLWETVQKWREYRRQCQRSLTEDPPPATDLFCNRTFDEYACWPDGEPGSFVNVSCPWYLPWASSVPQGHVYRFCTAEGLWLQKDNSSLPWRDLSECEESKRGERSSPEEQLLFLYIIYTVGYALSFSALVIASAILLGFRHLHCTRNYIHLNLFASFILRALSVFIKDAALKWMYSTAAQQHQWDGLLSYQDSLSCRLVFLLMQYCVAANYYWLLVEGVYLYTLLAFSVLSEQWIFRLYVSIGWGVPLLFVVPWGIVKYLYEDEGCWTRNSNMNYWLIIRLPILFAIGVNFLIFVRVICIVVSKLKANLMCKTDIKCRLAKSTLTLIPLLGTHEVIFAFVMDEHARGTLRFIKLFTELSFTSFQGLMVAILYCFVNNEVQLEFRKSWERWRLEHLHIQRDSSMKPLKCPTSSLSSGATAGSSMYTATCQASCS

SMILES	EC50 (GLP-1R [1])	EC50 (GLP-1R [2])
COCCn1c(CN2CCC(c3cccc(OCc4ccc(C#N)cc4F)n3)CC2)nc2c(F)c(F)c(C(=O)O)cc21 [Example 10, 2-((4-(6-((4-cyano-2-fluorobenzyl)oxy)pyridin-2-yl)piperidin-1-yl)methyl)-4,5-difluoro-1-(2-methoxyethyl)-1H-benzo[d]imidazole-6-carboxylic Acid]	18.2 nM	11.3 nM
COCCn1c(CN2CCC(c3cccc(OCc4ccc(C#N)cc4F)n3)CC2)nc2c(COC)cc(C(=O)O)cc21 [Example 27, 2-((4-(6-((4-cyano-2-fluorobenzyl)oxy)pyridin-2-yl)piperidin-1-yl)methyl)-1-(2-methoxyethyl)-4-(methoxymethyl)-1H-benzo[d]imidazole-6-carboxylic Acid]	14.6 nM	
COCCn1c(CN2CCC(c3cccc(OCc4ccc(C#N)cc4F)n3)CC2)nc2c(C3CC3)cc(C(=O)O)cc21 [Example 26, 2-((4-(6-((4-cyano-2-fluorobenzyl)oxy)pyridin-2-yl)piperidin-1-yl)methyl)-4-cyclopropyl-1-(2-methoxyethyl)-1H-benzo[d]imidazole-6-carboxylic Acid]	53.9 nM	47.8 nM
COCCn1c(CN2CCC(c3cccc(OCc4ccc(C#N)cc4F)n3)CC2)nc2c(Cl)cc(C(=O)O)cc21 [Example 9]	6.6 nM	2.6 nM
COCCn1c(CN2CCC(c3cccc(OCc4ccc(C#N)cc4F)n3)CC2)nc2c(C)cc(C(=O)O)cc21 [Example 28, 2-((4-(6-((4-cyano-2-fluorobenzyl)oxy)pyridin-2-yl)piperidin-1-yl)methyl)-1-(2-methoxyethyl)-4-methyl-1H-benzo[d]imidazole-6-carboxylic Acid]	21 nM	

Now those with a lower EC50 (GLP-1R [1]), led by results:

EC50 (GLP-1R [1])	EC50 (GLP-1R [2])	SMILES
3.8 nM	10.3 nM	COCCn1c(C2CC23CCN(c2cccc(OCc4ccc(C#N)cc4F)n2)CC3)nc2c(F)cc(C(=O)O)cc21 (stereo not shown) [Example 7, 2-[6-[6-[(4-cyano-2-fluoro-phenyl)methoxy]-2-pyridyl]-6-azaspiro[2.5]octan-2-yl]-7-fluoro-3-(2-methoxyethyl)benzimidazole-5-carboxylic Acid]
3.5 nM	7.1 nM	COCCn1c(CN2CCC(c3cccc(OCc4ccc(C#N)cc4F)n3)CC2)nc2c(C#N)cc(C(=O)O)cc21 [Example 25, 4-cyano-2-((4-(6-((4-cyano-2-fluorobenzyl)oxy)pyridin-2-yl)piperidin-1-yl)methyl)-1-(2-methoxyethyl)-1H-benzo[d]imidazole-6-carboxylic Acid]
5.3 nM	13.2 nM	COCCn1c(CC2CCN(c3cccc(OCc4ccc(C#N)cc4F)n3)CC2)nc2c(F)cc(C(=O)O)cc21 [Example 8]
1.04 nM		COCCn1c(CN2CCC(c3cccc(OCc4ccc(C#N)cc4F)n3)CC2)nc2c(F)cc(C(=O)O)cc21 [Example 14, 2-[[4-[6-[(4-cyano-2-fluoro-phenyl)methoxy]-2-pyridyl]-1-piperidyl]methyl]-7-fluoro-3-(2-methoxyethyl)benzimidazole-5-carboxylic Acid]
0.24 nM		CC(C)(C#N)Cn1c(CN2CCC(c3cccc(OCc4ccc(C#N)cc4F)n3)CC2)nc2c(F)cc(C(=O)O)cc21 [Example 15]
